According to patent US8198279B2, “Pyrido[2,3-b]pyrazin-8-substituted compounds and their use” (Institute of Cancer Research: Royal Cancer Hospital (The), priority 2007, dated 2012):
Several values for one entry are separate records, joined by “and”; a condition that tells them apart may be missing. Identical values can stand only once.

Columns and labels:
WM266.4 melanoma cells = assay: SRB Cell Proliferation Assay (SRB GI50); type: cell-based; conditions: Homo sapiens, WM 266-4, 144 h, 6 days growth
Description: Biological Methods —SRB Cell Proliferation Assay (SRB GI50)
Cultures of WM266.4 melanoma cells are routinely cultured in DMEM/10% foetal bovine serum, at 37° C., in 5% CO2 water saturated atmosphere. Cultures are maintained in exponential growth phase by sub-culturing before having become confluent (3-5 day intervals). Single cell suspensions are prepared by harvesting an 80 cm^2 tissue culture flask with 5 mL commercial trypsin EDTA. After 5 minutes, the detached cells are mixed with 5 mL fully complemented culture medium and centrifugally pelleted (1000 rpm for 7 minutes). After aspirating the supernatant, the cell pellet is re-suspended in 10 mL fresh medium and the cells fully disaggregated by drawing the whole volume up/down 5 times through a 19-gauge needle. The concentration of the cells is determined using a haemocytometer (1/10 dilution). A suitable volume to give at least a 2-fold excess for the number of tests being conducted, typically 100-200 mL, is prepared by diluting the cell suspension to 10,000/mL, and 100 μL/well dispensed into 96 well plates using a programmable 8-channel peristaltic pump, giving 1000 cells/well, leaving column 12 blank. The plates are returned to the incubator for 24 hours to allow the cells to re-attach.
The compounds being tested are prepared at 20 mM in dimethylsulphoxide. Aliquots (200 μL) are diluted into 20 mL culture medium giving 200 μM, and 10 serial dilutions of 3× performed by transferring 5 mL to 10 mL. Aliquots (100 μL) of each dilution are added to the wells, using an 8-channel pipettor, thus performing a final further 2× dilution, and giving doses ranging from 100 μM to 0.005 μM. Column 11 receives plain culture medium only. Each compound is tested in quadruplicate, each replicate being the average of four wells, and two plates per compound.
After a further 6 days growth, the plates are emptied, and the cells are fixed in 10% trichloroacteic acid for 10 minutes on ice. After thorough rinsing in running tap water, the plates are dried, and stained by adding 50 μL of a solution of 0.1% sulphorhodamine-B in 1% acetic acid, for 10 minutes at room temperature. The stain is poured out and the plates thoroughly rinsed under a stream of 1% acetic acid, thus removing unbound stain, and dried. The bound stain is taken into solution by addition of 150 μL Tris buffer pH 8, followed by 10 minutes on a plate-shaker (approximately 500 rpm). The absorbance at 540 nm in each well (being proportional to the number of cells present) is determined using a plate reader.
After averaging the results in rows A-D and E-H, the blank value (row 12) is subtracted, and results expressed as percentage of the untreated value (row 11). […] The GI50 generated by this procedure is the concentration of the drug that produces a percentage control A540 midway between the saturation, and zero-effect plateaus.

B-RAF = target: T1, B-RAF (Homo sapiens, UniProt P15056, V600E); assay: DELFIA Kinase Assay; type: biochemical; conditions: 100 μM ATP, GST-MEK substrate
T1 construct: made in house
T1 sequence (P15056 whole entry V600E): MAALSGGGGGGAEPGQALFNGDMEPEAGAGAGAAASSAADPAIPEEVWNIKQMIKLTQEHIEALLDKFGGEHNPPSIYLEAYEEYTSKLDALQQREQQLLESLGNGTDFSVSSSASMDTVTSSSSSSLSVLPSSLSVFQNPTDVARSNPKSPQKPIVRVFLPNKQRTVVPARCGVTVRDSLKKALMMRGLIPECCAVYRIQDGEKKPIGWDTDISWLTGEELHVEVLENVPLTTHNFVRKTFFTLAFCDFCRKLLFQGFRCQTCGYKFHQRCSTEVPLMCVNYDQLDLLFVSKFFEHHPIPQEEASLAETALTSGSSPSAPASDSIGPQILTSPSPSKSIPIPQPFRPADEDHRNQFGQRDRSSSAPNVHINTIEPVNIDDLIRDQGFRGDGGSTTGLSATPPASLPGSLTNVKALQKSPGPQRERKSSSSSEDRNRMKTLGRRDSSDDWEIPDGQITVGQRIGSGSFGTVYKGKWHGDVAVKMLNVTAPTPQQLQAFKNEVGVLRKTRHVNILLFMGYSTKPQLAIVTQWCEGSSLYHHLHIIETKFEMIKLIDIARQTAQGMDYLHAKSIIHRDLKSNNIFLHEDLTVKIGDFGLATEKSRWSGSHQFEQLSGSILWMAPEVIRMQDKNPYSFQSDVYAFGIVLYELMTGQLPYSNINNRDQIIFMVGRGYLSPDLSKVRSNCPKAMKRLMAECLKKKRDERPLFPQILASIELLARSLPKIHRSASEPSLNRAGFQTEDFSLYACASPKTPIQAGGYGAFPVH
Description: Biological Methods—DELFIA Kinase Assay
Compounds were assessed by a kinase assay performed according to the following protocol.
DKB1 (DKB with B-RAF and MEK Protein):
Combine 4950 μL of DKB and 50 μL of 2.5 mg/ml GST-MEK stock (to give […] of MEK per 40 μL). Then add 22.5 μL of B-RAF to give ˜0.2 μL of B-RAF per 40 μL.
100 mM stock, dilute to 500 μM to give 100 μM final concentration in assay.
• 1. Preblock wells with 5% milk in TBS for 1 hour. • 2. Wash wells with 3× with 200 μL TBS. • 3. Plate out 40 μL of DKB1 for all inhibitors (test compounds), DMSO control, and optionally other control compounds. • 4. Plate out 40 μL of DKB2 for BO and EV wells. • 5. Add inhibitors (test compounds) at 0.5 μL per well according to desired plate layout. • 6. Add 0.5 μL DMSO to vehicle control wells. • 7. Add 2 μL of B-RAF to BO and EV wells. • 8. Pre-incubate with inhibitors (test compounds) for 10 minutes at room temperature with shaking. • 9. Add 10 μL of 500 μM ATP stock, in DKB, to give 100 μM assay concentration. • 10. Seal plates with TopSeal and incubate at room temperature with shaking for 45 minutes. • 11. Wash plates 3× with 200 μL 0.1% Tween20/Water to terminate reaction. • 12. Add 50 μL per well of antibody mix and incubate for 1 hour at room temperature with shaking. • 13. Wash plates 3× with 200 μL 0.1% Tween20/Water. • 14. Add 100 μL DELFIA enhancement solution per well, cover in foil, and incubate at room temperature for 30 minutes with shaking. • 15. Read on Victor using Europium protocol.
(§1) Values for the blank (Empty Vector) are subtracted from all values. The DMSO controls are set as 100% activity and assay points (the response) are calculated as a percentage of the DMSO control. Data are plotted using Graphpad Prism software and a non-linear regression line is calculated using a variable slope sigmoidal dose-response equation (Y=Bottom+(Top−Bottom)/(1+10^((LogEC50−X)*HillSlope)) where X is the logarithm of concentration. Y is the response). The IC50 generated by this procedure is the concentration of the drug that produces a percentage control fluorescence value midway between the saturation, and zero-effect plateaus. Three independent assays are usually performed and the mean IC50 is reported.

pERK = assay: Cell Based Phospho-ERK Assay; conditions: 6 h, 6 hours incubation with test compound
Description: Biological Methods—Cell Based Phosho-ERK Assay
Compounds were assessed using a cell-based assay which was performed according to the following protocol.
Plate out 16,000 cells/well in 99 μL medium in a 96-well plate.
• 1. Add 1 μL inhibitor to the cells (total […] solution). • 2. Incubate the cells with test compound for 6 hours at 37° C. • 3. Aspirate off the solution from all of the wells. • 4. Fixate the cells with 100 μL 4% formaldehyde/0.25% Triton X-100 PBS per well. • 5. Incubate the plate for 1 hour at 4° C. • 6. Aspirate off the fixing solution and add 300 μL TBS per well. • 7. Leave the plate overnight at 4° C. Day 2: • 1. Wash the plate 2× with 200 μL PBS per well. • 2. Block with 100 μL 5% dried milk in TBS. • 3. Incubate the plate for 20 minutes at 37° C. • 4. Wash the plate 2× with 0.1% tween/H2O. • 5. Add 50 μL of 3 μg/mL primary antibody pERK (Sigma M8159), diluted in 5% milk powder/TBS, to each well. • 6. Incubate the plate for 2 hours at 37° C. • 7. Wash the plate 3× with 0.1% tween/H2O. • 8. Add 50 μL of 0.45 μg/mL secondary Europium-labelled anti-mouse antibody (Perkin Elmer) to each well. • 9. Incubate the plate for 1 hour at 37° C. • 10. Wash the plate 3× with 0.1% tween/H2O. • 11. Add 100 μL enhancement solution (Perkin Elmer) to each well. • 12. Leave the plate for approximately 10 minutes at room temperature before gently shaking the plate. • 13. Read Europium Time Resolved Fluorescence in Victor2. • 14. Wash the plate 2× with 0.1% tween/H2O. • 15. Measure the protein concentration with BCA (Sigma) by adding 200 μL of solution per well. • 16. Incubate the plate for 30 minutes at 37° C. • 17. Read absorbance levels at 570 nm in a plate reader.
Note that Europium counts are normalised for protein levels by dividing counts by absorbance.
as §1, with “(no cells)” for “(Empty Vector)”

Row | GI50 (WM266.4 melanoma cells) [µM] | IC50 (B-RAF) | IC50 (pERK) [µM] | SMILES
1 | 1 to 10 | < 1 µM and 0.1 to 1 µM | – | O=C(Nc1cc(C(F)(F)F)ccc1F)Nc1ccc(Oc2ccnc3[nH]c(=O)cnc23)c2ccccc12 [AA-012, 1-(2-fluoro-5-(trifluoromethyl)phenyl)-3-(4-(3-oxo-3,4-dihydropyrido[2,3-b]pyrazin-8-yloxy)naphthalen-1-yl)urea]
2 | < 10 | < 1 µM and 0.1 to 1 µM | – | O=C(Nc1ccc(Cl)c(C(F)(F)F)c1)Nc1ccc(Oc2ccnc3ncc(=O)[nH]c23)c2ccccc12 [AA-037, 1-(4-chloro-3-(trifluoromethyl)phenyl)-3-(4-(1-oxo-1,2-dihydropyrido[2,3-b]pyrazin-8-yloxy)naphthalen-1-yl)urea]
3 | 1 to 10 | < 1 µM and 0.1 to 1 µM | – | CNc1cnc2c(Oc3ccc(NC(=O)Nc4cc(C(F)(F)F)ccc4F)c(F)c3)ccnc2n1 [AA-055, 1-(2-fluoro-4-(3-(methylamino)pyrido[3,2-b]pyrazin-8-yloxy)phenyl)-3-(2-fluoro-5-(trifluoromethyl)phenyl)urea]
4 | < 1 | 0.1 to 1 µM | < 1 | Cc1ccc(-n2nc(C(C)(C)C)cc2NC(=O)Nc2ccc(Oc3ccnc4[nH]c(=O)c(N)nc34)cc2F)cc1 [AA-057, 1-(4-(2-amino-3-oxo-3,4-dihydropyrido[2,3-b]pyrazin-8-yloxy)-2-fluorophenyl)-3-(3-tert-butyl-1-p-tolyl-1H-pyrazol-5-yl)urea]
5 | 1 to 10 | 0.1 to 1 µM | 1 to 10 | Cc1ccc(-n2nc(C(C)(C)C)cc2NC(=O)Nc2ccc(Oc3ccnc4nc(CBr)c(=O)[nH]c34)cc2F)cc1 [AA-058, 1-(4-(3-(bromomethyl)-2-oxo-1,2-dihydropyrido[2,3-b]pyrazin-8-yloxy)-2-fluorophenyl)-3-(3-tert-butyl-1-p-tolyl-1H-pyrazol-5-yl)urea]
6 | < 1 | < 0.1 µM | < 1 | CSc1cc(Oc2ccnc3[nH]c(=O)c(C)nc23)ccc1NC(=O)Nc1cc(C(F)(F)F)ccc1F [AA-060, 1-(2-fluoro-5-(trifluoromethyl)phenyl)-3-(4-(2-methyl-3-oxo-3,4-dihydropyrido[2,3-b]pyrazin-8-yloxy)-2-(methylthio)phenyl)urea]
7 | < 1 | < 0.1 µM | < 1 | CSc1cc(Oc2ccnc3[nH]c(=O)c(C)nc23)ccc1NC(=O)Nc1cc(C(C)(C)C)nn1-c1ccc(C)cc1 [AA-061, 1-(3-tert-butyl-1-p-tolyl-1H-pyrazol-5-yl)-3-(4-(2-methyl-3-oxo-3,4-dihydropyrido[2,3-b]pyrazin-8-yloxy)-2-(methylthio)phenyl)urea]
8 | < 1 | < 0.1 µM | < 1 | COc1ccc(-n2nc(C(C)(C)C)cc2NC(=O)Nc2ccc(Oc3ccnc4[nH]c(=O)cnc34)cc2F)cn1 [AA-062, 1-(3-tert-butyl-1-(6-methoxypyridin-3-yl)-1H-pyrazol-5-yl)-3-(2-fluoro-4-(3-oxo-3,4-dihydropyrido[2,3-b]pyrazin-8-yloxy)phenyl)urea]
9 | < 1 | < 0.1 µM | < 1 | COc1ccc(-n2nc(C(C)(C)C)cc2NC(=O)Nc2ccc(Oc3ccnc4[nH]c(=O)cnc34)cc2SC)cn1 [AA-063, 1-(3-tert-butyl-1-(6-methoxypyridin-3-yl)-1H-pyrazol-5-yl)-3-(2-(methylthio)-4-(3-oxo-3,4-dihydropyrido[2,3-b]pyrazin-8-yloxy)phenyl)urea]
10 | 1 to 10 | 0.1 to 1 µM | – | CN(C)c1cnc2c(Oc3ccc(NC(=O)Nc4cc(C(F)(F)F)ccc4F)c(F)c3)ccnc2n1 [AA-068, 1-(4-(3-(dimethylamino)pyrido[3,2-b]pyrazin-8-yloxy)-2-fluorophenyl)-3-(2-fluoro-5-(trifluoromethyl)phenyl)urea]
11 | 1 to 10 | – | 1 to 10 | CN(C)c1cnc2c(Oc3ccc(NC(=O)Nc4cc(C(C)(C)C)nn4-c4ccccc4)c(F)c3)ccnc2n1 [AA-070, 1-(3-Tert-butyl-1-phenyl-1H-pyrazol-5-yl)-3-(4-(3-(dimethylamino)pyrido[3,2-b]pyrazin-8-yloxy)-2-fluorophenyl)urea]
12 | < 1 | – | < 1 | Cc1ccc(-n2nc(C(C)(C)C)cc2NC(=O)Nc2ccc(Oc3ccnc4nc(N5CCOCC5)cnc34)cc2F)cc1 [AA-073, 1-(3-tert-butyl-1-p-tolyl-1H-pyrazol-5-yl)-3-(2-fluoro-4-(3-morpholinopyrido[3,2-b]pyrazin-8-yloxy)phenyl)urea]
13 | 1 to 10 | – | < 1 | CC(C)(C)c1cc(NC(=O)Nc2ccc(Oc3ccnc4[nH]c(=O)cnc34)cc2F)n(CC2CCC2)n1 [AA-099, 1-(3-Tert-butyl-1-(cyclobutylmethyl)-1H-pyrazol-5-yl)-3-(2-fluoro-4-(3-oxo-3,4-dihydropyrido[3,2-b]pyrazin-8-yloxy)phenyl)urea]
